Results from patent US9314025B2, “Mixtures of mesoionic pesticides” (E I DU PONT DE NEMOURS AND COMPANY, priority 2009, dated 2016).
Several values for one entry are separate records, joined by “and”; a condition that tells them apart may be missing. Equal values may be shown once.

What was measured:
Assay type in all cases: in vivo
[1] = test system: green peach aphid (Myzus persicae); details: for Percent Mortality, Observed, Cmpd A: in vivo
Description: (§1) The presence of a synergistic effect between two active ingredients can be established with the aid of the Colby equation (see Colby, S. R., “Calculating Synergistic and Antagonistic Responses of Herbicide Combinations”, Weeds 1967, 15, 20-22):
(§2) Using the method of Colby, the presence of a synergistic interaction between two active ingredients is established by first calculating the predicted activity, p, of the mixture based on activities of the two components applied alone. In the equation above, A is the biological activity in percentage control of one component applied alone at rate x. The B term is the biological activity in percentage control of the second component applied at rate y. The equation calculates p, the predicted biological activity of the mixture of A at rate x with B at rate y if their effects are strictly additive and no interaction has occurred. If the experimentally established effect of the mixture is greater than the predicted activity, p, synergism is present. To use the Colby equation the active ingredients of the mixture are applied in a test separately as well as in combination.
(§3) Test compounds and compositions were formulated using a solution containing 10% acetone, 90% water and 300 ppm X-77® Spreader Lo-Foam Formula non-ionic surfactant containing alkylarylpolyoxyethylene, free fatty acids, glycols and isopropanol (Loveland Industries, Inc. Greeley, Colo., USA). The formulated compounds or compositions were applied in 1 mL of liquid through a SUJ2 atomizer nozzle with 1/8 JJ custom body (Spraying Systems Co. Wheaton, Ill., USA) positioned 1.27 cm (0.5 inches) above the top of each test unit. Tests were replicated three times. After spraying of the formulated test compound or compositions, each test unit was allowed to dry for 1 h and then a black, screened cap was placed on top. The test units were held for 6 days in a growth chamber at 25° C. and 70% relative humidity. Plant feeding damage was then visually assessed based on foliage consumed.
For evaluating control of green peach aphid (Myzus persicae) through contact and/or systemic means, the test unit consisted of a small open container with a 12-15-day-old radish plant inside. This was pre-infested by placing on a leaf of the test plant 30-40 aphids on a piece of leaf excised from a culture plant (cut-leaf method). The aphids moved onto the test plant as the leaf piece desiccated. After pre-infestation, the soil of the test unit was covered with a layer of sand.
Test compounds and compositions were formulated and sprayed as described for Test A. The applications were replicated three times. After spraying of the formulated test compound or composition, each test unit was allowed to dry for 1 h and then a black, screened cap was placed on top. The test units were held for 6 days in a growth chamber at 19-21° C. and 50-70% relative humidity. Each test unit was then visually assessed for insect mortality.
The results calculated as mean averages of results from the three replicates are listed in Table B. Compound 123 was applied at a rate of 50 ppm. Compound 8 was applied at a rate of 250 ppm.

[2] = test system: corn planthopper (Peregrinus maidis); details: for Percent Mortality, Observed, Cmpd A: in vivo
Description: as §1, §2, §3
For evaluating control of corn planthopper (Peregrinus maidis) through contact and/or systemic means, the test unit consisted of a small open container with a 3-4-day-old maize plant (spike) inside. White sand was added to the top of the soil prior to application. Test compounds and compositions were formulated, sprayed, and replicated three times as described for Test A. After spraying, the test units were allowed to dry for 1 h before they were post-infested with ˜15-20 nymphs (18 to 21 day old) by sprinkling them onto the sand with a salt shaker. A black, screened cap was placed on the top of the cylinder. The test units were held for 6 days in a growth chamber at 22-24° C. and 50-70% relative humidity. Each test unit was then visually assessed for insect mortality.
Compound 123 was applied at a rate of 2.5 ppm. Compound 8 was applied at a rate of 0.2 ppm.

[3] = test system: Western Flower Thrip (Frankliniellla occidentalis); assay: Test D: control of Western Flower Thrip on Soleil bean plant through contact and/or systemic means, plant protection; details: for Plant Protection, Observed, Cmpd A: in vivo
Description: as §1, §2, §3
For evaluating control of the Western Flower Thrip (Frankliniellla occidentalis) through contact and/or systemic means, the test unit consisted of a small open container with a 5-7-day-old Soleil bean plant inside.
Test compounds and compositions were formulated, sprayed, and replicated three times as described for Test A. After spraying, the test units were allowed to dry for 1 hour and then 22-27 adult thrips were added to the unit and then a black, screened cap was placed on top. The test units were held for 7 days at 25° C. and 45-55% relative humidity.
Compound 8 was applied at a rate of 250 ppm.

[4] = test system: diamondback moth (Plutella xylostella); assay: Test A: control of diamondback moth on radish plant, foliar spray, plant feeding damage assessed visually; details: for Plant Protection, Observed, Cmpd A: in vivo
Description: as §1, §2
For evaluating control of diamondback moth (Plutella xylostella) the test unit consisted of a small open container with a 12-14-day-old radish plant inside. This was pre-infested with ˜50 neonate larvae that were dispensed into the test unit via corn cob grits using a bazooka inoculator. The larvae moved onto the test plant after being dispensed into the test unit.
as §3
Compound 8 was applied at a rate of 20 ppm.

Compound	Percent Mortality, Observed, Cmpd A [1] [%]	Percent Mortality, Observed, Cmpd A [2] [%]	also measured
CC1(C)[C@H](C(=O)O[C@H](C#N)c2cccc(Oc3ccccc3)c2)[C@@H]1/C=C(\Cl)C(F)(F)F (racemic) [lambda-cyhalothrin]	39	45	
COc1ccc(C(F)(F)F)cc1-c1c([O-])[n+](Cc2ccc(F)nc2)c2ccccn2c1=O [Compound 8]			Plant Protection, Observed, Cmpd 8 ([3]; Cmpd 8 alone at 250 ppm, spray, 7 days, (0 to 10 rating) × 10, mean of 3 replicates): 53 (5×) and 37 (5×) and 50 (6×) and 10 (6×) and 30 (6×); Percent Mortality, Observed, Cmpd 8 ([1]; Cmpd 8 alone at 250 ppm, spray, 6 days, mean of 3 replicates): 25% and 13% and 10% and 15%; Plant Protection, Observed, Cmpd 8 ([4]; Cmpd 8 alone at 20 ppm, foliar spray, 6 days, (0 to 10 rating) × 10, mean of 3 replicates): 13 (5×) and 0 (11×) and 40 (6×) and 17 (6×); Percent Mortality, Observed, Cmpd 8 ([2]; Cmpd 8 alone at 0.2 ppm, spray, 6 days, mean of 3 replicates): 38% and 71% and 8% and 55% and 76%
O=c1c(-c2cc(OC(F)(F)F)cc(-c3ccc(F)nc3)c2)c([O-])[n+](Cc2cnc(Cl)s2)c2ccccn12 [Compound 123]			Plant Protection, Observed, Cmpd 123 ([3]; Cmpd 123 alone at 25 ppm, spray, 7 days, (0 to 10 rating) × 10, mean of 3 replicates): 23 (5×) and 30 (5×) and 33 (6×) and 3 (6×) and 40 (6×); Percent Mortality, Observed, Cmpd 123 ([1]; Cmpd 123 alone at 50 ppm, spray, 6 days, mean of 3 replicates): 15% and 18% and 22% and 9% and 66%; Plant Protection, Observed, Cmpd 123 ([4]; Cmpd 123 alone at 0.1 ppm, foliar spray, 6 days, (0 to 10 rating) × 10, mean of 3 replicates): 33 (5×) and 17 (11×) and 97 (6×) and 80 (6×); Percent Mortality, Observed, Cmpd 123 ([2]; Cmpd 123 alone at 2.5 ppm, spray, 6 days, mean of 3 replicates): 28% and 21% and 8% and 42% and 68%
C/C(=N\C#N)N(C)Cc1ccc(Cl)nc1 [acetamiprid]	9	32	
CC(C)N1C(=O)N(c2ccccc2)CS/C1=N\C(C)(C)C [buprofezin]	14	44	
CN(C)C(CSC(N)=O)CSC(N)=O [cartap]	15	40	
CNC(=O)c1cc(Cl)cc(C)c1NC(=O)c1cc(Br)nn1-c1ncccc1Cl [chlorantraniliprole]	11	33	
CCOCn1c(-c2ccc(Cl)cc2)c(C#N)c(Br)c1C(F)(F)F [chlorfenapyr]	54	81	
CCOP(=S)(OCC)Oc1nc(Cl)c(Cl)cc1Cl [chlorpyrifos]	18	48	
CN/C(=N\[N+](=O)[O-])NCc1cnc(Cl)s1 [clothianidin]	16	35	
CNC(=O)c1cc(C#N)cc(C)c1NC(=O)c1cc(Br)nn1-c1ncccc1Cl [cyantraniliprole]	10	67	
CN/C(=N/CC1CCOC1)N[N+](=O)[O-] (centres unmarked) [dinotefuran]	33	42	
N#Cc1nn(-c2c(Cl)cc(C(F)(F)F)cc2Cl)c(N)c1[S+]([O-])C(F)(F)F (centres unmarked) [fipronil]	87	21	
N#CCNC(=O)c1cnccc1C(F)(F)F [flonicamid]	14	70	Plant Protection, Observed, Cmpd A [3]: 60; Plant Protection, Observed, Cmpd A [4]: 10
Cc1cc(C(F)(C(F)(F)F)C(F)(F)F)ccc1NC(=O)c1cccc(I)c1C(=O)NC(C)(C)CS(C)(=O)=O [flubendiamide]	5	42	
COC(=O)N(C(=O)N1CO[C@@]2(C(=O)OC)Cc3cc(Cl)ccc3C2=N1)c1ccc(OC(F)(F)F)cc1 [indoxacarb]	32	21	Plant Protection, Observed, Cmpd A [3]: 23; Plant Protection, Observed, Cmpd A [4]: 40
CNC(=O)ON=C(C)SC [methomyl]	28	80	
COc1cccc(C(=O)NN(C(=O)c2cc(C)cc(C)c2)C(C)(C)C)c1C [methoxyfenozide]	16	33	
O=C(NC(=O)c1c(F)cccc1F)Nc1ccc(OC(F)(F)C(F)OC(F)(F)F)c(Cl)c1 (centres unmarked) [novaluron]	7	51	
CNC(=O)O/N=C(\SC)C(=O)N(C)C [oxamyl]	23	32	
CC1=NNC(=O)N(/N=C/c2cccnc2)C1 [pymetrozine]	28	76	
FC(F)(F)c1ccc(OCCCOc2c(Cl)cc(OCC=C(Cl)Cl)cc2Cl)nc1 [pyridalyl]	13	62	
CC(COc1ccc(Oc2ccccc2)cc1)Oc1ccccn1 (centres unmarked) [pyriproxifen]	10	20	Plant Protection, Observed, Cmpd A [3]: 7; Plant Protection, Observed, Cmpd A [4]: 0
CCOC(=O)OC1=C(c2cc(C)ccc2C)C(=O)N[C@]12CC[C@@H](OC)CC2 [spirotetramat]	8	65	
N#C/N=C1\SCCN1Cc1ccc(Cl)nc1 [thiacloprid]	12	60	
CN1COCN(Cc2cnc(Cl)s2)/C1=N\[N+](=O)[O-] [thiamethoxam]	40	29	
CS/C(C)=N\OC(=O)N(C)SN(C)C(=O)O/N=C(\C)SC [thiodicarb]	25	64	
CCc1nn(C)c(C(=O)NCc2ccc(Oc3ccc(C)cc3)cc2)c1Cl [tolfenpyrad]	77	98	
abamectin	91	90	Plant Protection, Observed, Cmpd A [3]: 20; Plant Protection, Observed, Cmpd A [4]: 50
spinetoram	10	58	Plant Protection, Observed, Cmpd A [3]: 27; Plant Protection, Observed, Cmpd A [4]: 40
